Where a name gives a salt, the structure may show the parent alone.
Target: truncated PI3Kα (p110α/iSH2 p85α) (Homo sapiens (Human), UniProt P42336)
Test: PI3KA_Act fluorescence polarization kinase assay (Ki)
Assay type: biochemical
Settings: 1 mM ATP
Method in brief: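 Ki values result from fitting fluorescence polarization signals to the Morrison equation for tight-binding competitive inhibitors. The detector was GST-Grp1 PH domain with TAMRA-PIP3, read after a 30 min room-temperature reaction of 0.5 nM truncated PI3Kα and 30 μM PIP2 at pH 7.4 in HEPES/NaCl/MgCl2/DTT/CHAPS buffer. Compounds were tested as 12-point 3-fold dilutions from 3 μM.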

truncated PI3Kα (p110α/iSH2 p85α), sequence (P42336 whole entry, the tested form may be a part): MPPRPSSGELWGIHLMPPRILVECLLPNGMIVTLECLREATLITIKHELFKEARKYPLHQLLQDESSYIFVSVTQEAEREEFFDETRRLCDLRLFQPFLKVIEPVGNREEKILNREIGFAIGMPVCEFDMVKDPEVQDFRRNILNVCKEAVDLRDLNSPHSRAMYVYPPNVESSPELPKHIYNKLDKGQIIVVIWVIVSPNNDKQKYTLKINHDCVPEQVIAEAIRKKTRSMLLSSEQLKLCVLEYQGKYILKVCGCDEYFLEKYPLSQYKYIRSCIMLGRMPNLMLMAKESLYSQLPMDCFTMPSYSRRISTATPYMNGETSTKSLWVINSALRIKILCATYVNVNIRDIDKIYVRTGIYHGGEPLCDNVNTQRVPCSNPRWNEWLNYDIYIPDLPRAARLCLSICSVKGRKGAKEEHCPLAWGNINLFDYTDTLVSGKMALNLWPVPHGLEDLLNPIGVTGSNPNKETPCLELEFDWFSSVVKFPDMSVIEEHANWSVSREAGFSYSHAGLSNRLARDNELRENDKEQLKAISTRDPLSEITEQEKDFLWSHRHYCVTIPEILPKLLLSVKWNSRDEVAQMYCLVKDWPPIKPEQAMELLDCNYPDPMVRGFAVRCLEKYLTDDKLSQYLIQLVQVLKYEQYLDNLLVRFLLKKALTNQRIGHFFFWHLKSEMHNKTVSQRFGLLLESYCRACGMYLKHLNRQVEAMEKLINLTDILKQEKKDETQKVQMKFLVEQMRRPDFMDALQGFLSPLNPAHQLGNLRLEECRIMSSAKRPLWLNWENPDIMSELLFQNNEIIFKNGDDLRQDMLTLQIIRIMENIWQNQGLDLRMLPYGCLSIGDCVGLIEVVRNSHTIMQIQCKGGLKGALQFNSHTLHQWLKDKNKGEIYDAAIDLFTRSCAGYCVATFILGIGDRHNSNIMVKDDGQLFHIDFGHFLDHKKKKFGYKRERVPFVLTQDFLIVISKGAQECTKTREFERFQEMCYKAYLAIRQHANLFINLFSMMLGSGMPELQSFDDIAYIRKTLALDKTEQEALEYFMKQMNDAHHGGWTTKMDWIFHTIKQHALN

SMILES	PI3KA_Act Ki	Ki
C[C@H]1COCCN1c1nc(-c2cnc(N)nc2)c2c(n1)N([C@@]1(C)CCN(C(=O)[C@@H](N)CF)C1)CC2.Cl [Example 479, (2R)-2-amino-1-[(3S)-3-{4-(2-aminopyrimidin-5-yl)-2-[(3S)-3-methylmorpholin-4-yl]-5,6-dihydro-7H-pyrrolo[2,3-d]pyrimidin-7-yl}-3-methylpyrrolidin-1-yl]-3-fluoropropan-1-one hydrochloride]	0.026 nM	–
C[C@H]1COCCN1c1nc(-c2cnc(N)nc2)c2c(n1)N([C@@]1(C)CCN(C(=O)[C@H](N)CF)C1)CC2.Cl [Example 480, (2S)-2-amino-1-[(3S)-3-{4-(2-aminopyrimidin-5-yl)-2-[(3S)-3-methylmorpholin-4-yl]-5,6-dihydro-7H-pyrrolo[2,3-d]pyrimidin-7-yl}-3-methylpyrrolidin-1-yl]-3-fluoropropan-1-one hydrochloride]	<0.018 nM	–
C[C@H]1COCCN1c1nc(-c2cnc(N)nc2)c2c(n1)N([C@@]1(C)CCN(C(=O)[C@@H](N)C3CC3)C1)CC2.Cl [Example 481, (2S)-2-amino-1-[(3S)-3-{4-(2-aminopyrimidin-5-yl)-2-[(3S)-3-methylmorpholin-4-yl]-5,6-dihydro-7H-pyrrolo[2,3-d]pyrimidin-7-yl}-3-methylpyrrolidin-1-yl]-2-cyclopropylethanone hydrochloride]	0.149 nM	–
C[C@H]1COCCN1c1nc(-c2cnc(N)nc2)c2c(n1)N([C@@]1(C)CCN(C(=O)[C@H](N)C3CC3)C1)CC2.Cl [Example 482, (2R)-2-amino-1-[(3S)-3-{4-(2-aminopyrimidin-5-yl)-2-[(3S)-3-methylmorpholin-4-yl]-5,6-dihydro-7H-pyrrolo[2,3-d]pyrimidin-7-yl}-3-methylpyrrolidin-1-yl]-2-cyclopropylethanone hydrochloride]	0.022 nM	–
C[C@H]1COCCN1c1nc(-c2cnc(N)nc2)c2c(n1)N([C@@]1(C)CCN(C(=O)CN(C)C)C1)CC2 [Example 483, 1-[(3S)-3-{4-(2-aminopyrimidin-5-yl)-2-[(3S)-3-methylmorpholin-4-yl]-5,6-dihydro-7H-pyrrolo[2,3-d]pyrimidin-7-yl}-3-methylpyrrolidin-1-yl]-2-(dimethylamino)ethanone]	0.049 nM	–
C[C@H]1COCCN1c1nc(-c2cnc(N)nc2)c2c(n1)N([C@@]1(C)CCN(C(=O)C(C)(C)CN)C1)CC2.Cl [Example 484, 3-amino-1-[(3S)-3-{4-(2-aminopyrimidin-5-yl)-2-[(3S)-3-methylmorpholin-4-yl]-5,6-dihydro-7H-pyrrolo[2,3-d]pyrimidin-7-yl}-3-methylpyrrolidin-1-yl]-2,2-dimethylpropan-1-one hydrochloride]	<0.018 nM	–
C[C@H]1COCCN1c1nc(-c2cnc(N)nc2)c2c(n1)N([C@@]1(C)CCN(C(=O)[C@](C)(N)CO)C1)CC2.Cl [Example 485, (2R)-2-amino-1-[(3S)-3-{4-(2-aminopyrimidin-5-yl)-2-[(3S)-3-methylmorpholin-4-yl]-5,6-dihydro-7H-pyrrolo[2,3-d]pyrimidin-7-yl}-3-methylpyrrolidin-1-yl]-3-hydroxy-2-methylpropan-1-one hydrochloride]	<0.018 nM	–
C[C@H]1COCCN1c1nc(-c2cnc(N)nc2)c2c(n1)N([C@@]1(C)CCN(C(=O)[C@@](C)(N)CO)C1)CC2.Cl [Example 486, (2S)-2-amino-1-[(3S)-3-{4-(2-aminopyrimidin-5-yl)-2-[(3S)-3-methylmorpholin-4-yl]-5,6-dihydro-7H-pyrrolo[2,3-d]pyrimidin-7-yl}-3-methylpyrrolidin-1-yl]-3-hydroxy-2-methylpropan-1-one hydrochloride]	<0.018 nM	–
C[C@H]1COCCN1c1nc(-c2cnc(N)nc2)c2c(n1)N([C@@]1(C)CCN(C(=O)C(C)(N)CO)C1)CC2.Cl (stereo partly drawn) [Example 487, 2-amino-1-[(3S)-3-{4-(2-aminopyrimidin-5-yl)-2-[(3S)-3-methylmorpholin-4-yl]-5,6-dihydro-7H-pyrrolo[2,3-d]pyrimidin-7-yl}-3-methylpyrrolidin-1-yl]-3-hydroxy-2-methylpropan-1-one hydrochloride]	0.011 nM	–
CNC(C)(C)C(=O)N1CC[C@](C)(N2CCc3c(-c4cnc(N)nc4)nc(N4CCOC[C@@H]4C)nc32)C1.Cl [Example 488, 1-[(3S)-3-{4-(2-aminopyrimidin-5-yl)-2-[(3S)-3-methylmorpholin-4-yl]-5,6-dihydro-7H-pyrrolo[2,3-d]pyrimidin-7-yl}-3-methylpyrrolidin-1-yl]-2-methyl-2-(methylamino)propan-1-one hydrochloride]	<0.018 nM	–
C[C@H]1COCCN1c1nc(-c2cnc(N)nc2)c2c(n1)N([C@@]1(C)CCN(C(=O)C(F)(F)CN)C1)CC2.Cl [Example 489, 3-amino-1-[(3S)-3-{4-(2-aminopyrimidin-5-yl)-2-[(3S)-3-methylmorpholin-4-yl]-5,6-dihydro-7H-pyrrolo[2,3-d]pyrimidin-7-yl}-3-methylpyrrolidin-1-yl]-2,2-difluoropropan-1-one hydrochloride]	<0.018 nM	–
C[C@H]1COCCN1c1nc(-c2cnc(N)nc2)c2c(n1)N([C@@]1(C)CCN(C(=O)[C@@H](N)C(F)(F)F)C1)CC2.Cl [Example 490, (2R)-2-amino-1-[(3S)-3-{4-(2-aminopyrimidin-5-yl)-2-[(3S)-3-methylmorpholin-4-yl]-5,6-dihydro-7H-pyrrolo[2,3-d]pyrimidin-7-yl}-3-methylpyrrolidin-1-yl]-3,3,3-trifluoropropan-1-one hydrochloride]	<0.018 nM	–
C[C@H]1COCCN1c1nc(-c2cnc(N)nc2)c2c(n1)N([C@@]1(C)CCN(C(=O)[C@H](N)C(F)(F)F)C1)CC2.Cl [Example 491, (2S)-2-amino-1-[(3S)-3-{4-(2-aminopyrimidin-5-yl)-2-[(3S)-3-methylmorpholin-4-yl]-5,6-dihydro-7H-pyrrolo[2,3-d]pyrimidin-7-yl}-3-methylpyrrolidin-1-yl]-3,3,3-trifluoropropan-1-one hydrochloride]	0.050 nM	–
C[C@H]1COCCN1c1nc(-c2cnc(N)nc2)c2c(n1)N([C@@]1(C)CCN(C(=O)C3(N)CC3)C1)CC2.Cl [Example 492, (1-aminocyclopropyl)[(3S)-3-{4-(2-aminopyrimidin-5-yl)-2-[(3S)-3-methylmorpholin-4-yl]-5,6-dihydro-7H-pyrrolo[2,3-d]pyrimidin-7-yl}-3-methylpyrrolidin-1-yl]methanone hydrochloride]	0.101 nM	–
C[C@H]1COCCN1c1nc(-c2cnc(N)nc2)c2c(n1)N([C@@]1(C)CCN(C(=O)C3(CN)CC3)C1)CC2.Cl [Example 493, [1-(aminomethyl)cyclopropyl][(3S)-3-{4-(2-aminopyrimidin-5-yl)-2-[(3S)-3-methylmorpholin-4-yl]-5,6-dihydro-7H-pyrrolo[2,3-d]pyrimidin-7-yl}-3-methylpyrrolidin-1-yl]methanone hydrochloride]	0.061 nM	–
C[C@H]1COCCN1c1nc(-c2cnc(N)nc2)c2c(n1)N([C@@]1(C)CCN(C(=O)[C@@]3(C)CCN3)C1)CC2.Cl [Example 494, [(3S)-3-{4-(2-aminopyrimidin-5-yl)-2-[(3S)-3-methylmorpholin-4-yl]-5,6-dihydro-7H-pyrrolo[2,3-d]pyrimidin-7-yl}-3-methylpyrrolidin-1-yl][(2R)-2-methylazetidin-2-yl]methanone hydrochloride]	0.046 nM	–
C[C@H]1COCCN1c1nc(-c2cnc(N)nc2)c2c(n1)N([C@@]1(C)CCN(C(=O)[C@]3(C)CCN3)C1)CC2.Cl [Example 495, [(3S)-3-{4-(2-aminopyrimidin-5-yl)-2-[(3S)-3-methylmorpholin-4-yl]-5,6-dihydro-7H-pyrrolo[2,3-d]pyrimidin-7-yl}-3-methylpyrrolidin-1-yl][(2S)-2-methylazetidin-2-yl]methanone hydrochloride]	0.031 nM	–
C[C@H]1COCCN1c1nc(-c2cnc(N)nc2)c2c(n1)N([C@@]1(C)CCN(C(=O)C3(F)CNC3)C1)CC2 [Example 496, [(3S)-3-{4-(2-aminopyrimidin-5-yl)-2-[(3S)-3-methylmorpholin-4-yl]-5,6-dihydro-7H-pyrrolo[2,3-d]pyrimidin-7-yl}-3-methylpyrrolidin-1-yl](3-fluoroazetidin-3-yl)methanone hydrochloride]	–	< 0.018 nM
C[C@H]1COCCN1c1nc(-c2cnc(N)nc2)c2c(n1)N([C@@]1(C)CCN(C(=O)C3(F)CN(C(=O)OC(C)(C)C)C3)C1)CC2 [Example 497, tert-butyl 3-{[(3S)-3-{4-(2-aminopyrimidin-5-yl)-2-[(3S)-3-methylmorpholin-4-yl]-5,6-dihydro-7H-pyrrolo[2,3-d]pyrimidin-7-yl}-3-methylpyrrolidin-1-yl]carbonyl}-3-fluoroazetidine-1-carboxylate]	–	0.056 nM
COC1CN(C(=O)N2CC[C@](C)(N3CCc4c(-c5cnc(N)nc5)nc(N5CCOC[C@@H]5C)nc43)C2)C1 [Example 498, [(3S)-3-{4-(2-aminopyrimidin-5-yl)-2-[(3S)-3-methylmorpholin-4-yl]-5,6-dihydro-7H-pyrrolo[2,3-d]pyrimidin-7-yl}-3-methylpyrrolidin-1-yl](3-methoxyazetidin-1-yl)methanone]	0.048 nM	–
C[C@H]1COCCN1c1nc(-c2cnc(N)nc2)c2c(n1)N([C@@]1(C)CCN(C(=O)[C@@H]3CCOC3)C1)CC2 [Example 499, [(3S)-3-{4-(2-aminopyrimidin-5-yl)-2-[(3S)-3-methylmorpholin-4-yl]-5,6-dihydro-7H-pyrrolo[2,3-d]pyrimidin-7-yl}-3-methylpyrrolidin-1-yl][(3R)-tetrahydrofuran-3-yl]methanone]	0.048 nM	–

From patent publication US9260439B2, “Dihydropyrrolopyrimidine derivatives” (PFIZER INC., priority 2014, dated 2016)
